Experimental data as given in patent US11021481B2, “Substituted isoindolin-1-ones and 2,3-dihydro-1h-pyrrolo[3,4-c]pyridin-1-ones as HPK1 antagonists” (Nimbus Saturn, Inc., priority 2019, dated 2021).

target: HPK1 (Homo sapiens (Human), UniProt Q92918); test: HPK1 biochemical enzyme assay (microfluidic mobility shift assay); conditions: 1.5 nM HPK1, ATP 1 mM final, 30 min preincubation, 60 min at RT, Caliper EZ Reader; read-out: HPK1 1000UMATP caliper IC50
Method in brief: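 Mobility shift readout of HPK1 activity after a 60 min RT reaction with 1 mM ATP, 1 μM substrate and 5 mM MgCl2. Enzyme/substrate mix was first exposed to compounds for 30 min, using ten-point curves topping at 3 μM final.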

HPK1, sequence (Q92918 whole entry): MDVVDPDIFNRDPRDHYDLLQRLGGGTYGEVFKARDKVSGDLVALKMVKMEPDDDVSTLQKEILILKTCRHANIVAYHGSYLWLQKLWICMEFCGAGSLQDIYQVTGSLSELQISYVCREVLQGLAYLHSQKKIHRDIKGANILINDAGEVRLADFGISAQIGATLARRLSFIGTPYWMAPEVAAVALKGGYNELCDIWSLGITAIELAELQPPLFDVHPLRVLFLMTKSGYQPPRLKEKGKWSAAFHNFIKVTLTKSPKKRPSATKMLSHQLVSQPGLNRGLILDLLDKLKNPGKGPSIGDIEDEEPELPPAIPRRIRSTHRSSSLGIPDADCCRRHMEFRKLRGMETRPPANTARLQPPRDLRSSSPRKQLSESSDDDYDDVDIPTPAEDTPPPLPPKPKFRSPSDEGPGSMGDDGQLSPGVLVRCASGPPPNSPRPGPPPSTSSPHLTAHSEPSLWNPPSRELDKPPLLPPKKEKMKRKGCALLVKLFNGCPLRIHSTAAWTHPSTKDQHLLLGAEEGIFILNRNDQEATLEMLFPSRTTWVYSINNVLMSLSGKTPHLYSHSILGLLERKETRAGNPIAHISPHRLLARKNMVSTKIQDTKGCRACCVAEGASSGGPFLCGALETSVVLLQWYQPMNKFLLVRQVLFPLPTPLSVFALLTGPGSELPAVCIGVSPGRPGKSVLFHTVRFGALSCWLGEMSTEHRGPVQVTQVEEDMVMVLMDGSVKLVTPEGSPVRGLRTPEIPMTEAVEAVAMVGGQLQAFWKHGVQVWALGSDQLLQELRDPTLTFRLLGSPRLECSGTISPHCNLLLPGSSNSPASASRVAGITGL

Question: `Cn1ccc2c(-c3ncc(Nc4ccc(N5CCC(O)(CN6CCOCC6)CC5)cn4)c4c3CNC4=O)ccnc21` [I-343, 7-((5-(4-hydroxy-4-(morpholinomethyl)piperidin-1-yl)pyridin-2-yl)amino)-4-(1-methyl-1H-pyrrolo[2,3-b]pyridin-4-yl)-2,3-dihydro-1H-pyrrolo[3,4-c]pyridin-1-one] was tested. Which IC50 did it give?
Answer: The IC50 was < 100 nM.

Question: With `Cn1ccc2c(-c3ncc(Nc4ccc(N5CCC[C@@H](O)C5)cn4)c4c3CNC4=O)ccnc21` [I-178, 7-[[5-[(3R)-3-hydroxy-1-piperidyl]-2-pyridyl]amino]-4-(1-methylpyrrolo [2,3-b]pyridin-4-yl)-2,3-dihydropyrrolo [3,4-c]pyridin-1-one] as the compound, how does the IC50 read?
Answer: The IC50 was < 100 nM.

Question: How did the IC50 turn out when `CN(C)C(C)(C)c1nc(Nc2ccc(-c3cnc4cc(F)ccn34)c3c2C(=O)NC3)ccc1[C@@H]1CCOC1` [I-833, (S)-7-((6-(2-(dimethylami-no)propan-2-yl)-5-(THF-3-yl)pyridin-2-yl)amino)-4-(7-fluoroimidazo [1,2-a]pyridin-3-yl)isoindolin-1-one] was run?
Answer: Its IC50 is 100 to 1000 nM.

Question: With `CN1CCN(c2ccc(Nc3ccc(-c4ccnc5c4ccn5C4CC4)c4c3C(=O)NC4)nc2)CC1` [I-265, 4-(1-cyclopropyl-1H-pyrrolo[2,3-b]pyridin-4-yl)-7-((5-(4-methylpiperazin-1-yl)pyridin-2-yl)amino)isoin-dolin-1-one] as the compound, how does the IC50 read?
Answer: Its IC50 is < 100 nM.

Question: `Cc1nc(Nc2cnc(-c3ccnc4c3ccn4C)c3c2C(=O)NC3)ccc1N1CCN(C)CC1` [I-589, 4-(1-methyl-1H-pyrrolo[2,3-b]pyridin-4-yl)-7-((6-methyl-5-(4-methylpiperazin-1-yl)pyridin-2-yl)amino)-2.3-dihydro-1H-pyrrolo[3,4-c]pyridin-1-one] was tested. Which IC50 did it give?
Answer: The IC50 was < 100 nM.

Question: For “(S)-7-((6- ((dimethylamino)- methyl)-5- (tetrahydrofuran- 3-yl)pyridin- 2-yl)amino)-4- (8-methylimidazo [1,2-a]pyridin- 3-yl)isoindolin- 1-one [I-695]”, which IC50 is on record?
Answer: The IC50 was < 100 nM.

Question: How did the IC50 turn out when `CN1CCN(c2ccc(Nc3ccc(-c4cnn5cccnc45)c4c3C(=O)NC4)nc2)CC1` [I-112, 7-[[5-(4-methylpiperazin-1-yl)-2-pyridyl]amino]-4-pyrazolo[1,5-a]pyrimidin-3-yl-isoindolin-1-one] was run?
Answer: Its IC50 is < 100 nM.

Question: `O=C1NCc2c(-c3cnn4ccccc34)ccc(Nc3ccc(N4CCC(O)CC4)cn3)c21` [I-131, 7-[[5-(4-hydroxy-1-piperidyl)-2-pyridyl]amino]-4-pyrazolo[1,5-a]pyridin-3-yl-isoindolin-1-one] was tested. Which IC50 did it give?
Answer: Its IC50 is < 100 nM.

Question: `CN(C)Cc1nc(Nc2ccc(-c3ccnc4c3ccn4C)c3c2C(=O)NC3)ccc1[C@@H]1CCOC1` [I-545, (S)-7-((6-((dimethylamino)-methyl)-5-(tetrahydrofuran-3-yl)pyridin-2-yl)amino)-4-(1-methyl-1H-pyrrolo[2,3-b]pyridin-4-yl)isoindolin-1-one] was tested. Which IC50 did it give?
Answer: Its IC50 is < 100 nM.

Question: With `N#Cc1ccn2c(-c3ccc(Nc4ccc(N5CCC(O)CC5)cn4)c4c3CNC4=O)cnc2c1` [I-182, 3-[7-[[5-(4-hydroxy-1-piperidyl)-2-pyridyl]amino]-1-oxo-isoindolin-4-yl]imidazo[1,2-a]pyridine-7-carbonitrile] as the compound, how does the IC50 read?
Answer: Its IC50 is < 100 nM.

Question: With `O=C1NCc2c(-c3cnc4n3CCCCC4)ccc(Nc3ccc(N4CCC(O)CC4)cn3)c21` [I-288, 7-((5-(4-hydroxy-piperidin-1-yl)pyridin-2-yl)amino)-4-(6,7,8,9-tetrahydro-5H-imidazo[1,2-a]azepin-3-yl)isoindolin-1-one] as the compound, how does the IC50 read?
Answer: The IC50 was 100 to 1000 nM.

Question: How did the IC50 turn out when `O=C1NCc2c(-c3cnc4c(F)cccn34)ccc(Nc3ccc(N4CCOCC4)cn3)c21` [I-156, 4-(8-fluoroimidazo [1,2-a]pyridin-3-yl)-7-[(5-morpholino-2-pyridyl)amino] isoindolin-1-one] was run?
Answer: The IC50 was < 100 nM.

Question: With `Cn1ccc2c(-c3ccc(Nc4ccc(N5CCNCC5)cn4)c4c3C(C)(C)NC4=O)ccnc21` [I-273, 3,3-dimethyl-4-(1-methyl-1H-pyrrolo[2,3-b]pyridin-4-yl)-7-((5-(piperazin-1-yl)pyridin-2-yl)amino)isoindolin-1-one] as the compound, how does the IC50 read?
Answer: The IC50 was > 1000 nM.

Question: With `Cn1ccc2c(-c3ccc(Nc4ccc(N5CCC[C@H](O)C5)cn4)c4c3CNC4=O)ccnc21` [I-116, 7-[[5-[(3S)-3-hydroxy-1-piperidyl]-2-pyridyl]amino]-4-(1-methylpyrrolo [2,3-b]pyridin-4-yl)isoindolin-1-one] as the compound, how does the IC50 read?
Answer: Its IC50 is < 100 nM.

Question: For `CN(C)Cc1nc(Nc2cnc(-c3ccnc4c3ccn4C)c3c2C(=O)NC3)ccc1N1CCC(O)CC1` [I-776, 7-((6-((dimethylamino)-methyl)-5-(4-hydroxypiperidin-1-yl)pyridin-2-yl)amino)-4-(1-methyl-1H-pyrrolo[2,3-b]pyridin-4-yl)-2,3-dihydro-1H-pyrrolo[3,4-c]pyridin-1-one], which IC50 is on record?
Answer: The IC50 was < 100 nM.

Question: Which IC50 does the source give for `CN1CCN(c2ccc(Nc3ccc(-c4c[nH]c5cc(F)ccc45)c4c3C(=O)NC4)nc2)CC1` [I-32, 4-(6-fluoro-1H-indol-3-yl)-7-[[5-(4-methylpiperazin-1-yl)-2-pyridyl]amino] isoindolin-1-one] here?
Answer: The IC50 was < 100 nM.

Question: For `CN1CCN(c2ccc(Nc3ccc(-c4ccnc5c4ccn5C)c4c3C(=O)NC4)nc2)CC1` [I-33, 7-[[5-(4-methylpiperazin-1-yl)-2-pyridyl]amino]-4-(1-methylpyrrolo [2,3-b]pyridin-4-yl)isoindolin-1-one], which IC50 is on record?
Answer: The IC50 was < 100 nM.

Question: `O=C1NCc2c(-c3cnc4cnccn34)ccc(Nc3ccc(N4CCOCC4)cn3)c21` [I-153, 4-imidazo[1,2-a]pyrazin-3-yl-7-[(5-morpholino-2-pyridyl)amino] isoindolin-1-one] was tested. Which IC50 did it give?
Answer: The IC50 was < 100 nM.

Question: For `Cc1ccn2c(-c3ncc(Nc4ccc(N5CCNCC5)cn4)c4c3CNC4=O)cnc2c1` [I-124, 4-(7-methylimidazo [1,2-a]pyridin-3-yl)-7-[(5-piperazin-1-yl-2-pyridyl)amino]-2,3-dihydropyrrolo [3,4-c]pyridin-1-one], which IC50 is on record?
Answer: Its IC50 is < 100 nM.

Question: Which IC50 does the source give for `CN(C)Cc1ccn2c(-c3ccc(Nc4ccc(N5CCC(O)CC5)cn4)c4c3CNC4=O)cnc2c1` [I-380, 4-(7-((dimethylamino)-methyl)imi-dazo[1,2-a]pyridin-3-yl)-7-((5-(4-hydroxy-piperidin-1-yl)pyridin-2-yl)amino)isoin-dolin-1-one] here?
Answer: Its IC50 is 100 to 1000 nM.

Question: For `Cn1ccc2c(-c3ccc(Nc4ccc(N5CC[C@@H](O)C5)cn4)c4c3CNC4=O)ccnc21` [I-278, (R)-7-((5-(3-hydroxy-pyrrolidin-1-yl)pyridin-2-yl)amino)-4-(1-methyl-1H-pyrrolo[2,3-b]pyridin-4-yl)isoindolin-1-one], which IC50 is on record?
Answer: Its IC50 is < 100 nM.

Question: With `CN(C)Cc1nc(Nc2ccc(-c3cnc4cc(F)ccn34)c3c2C(=O)NC3)ccc1[C@H]1CCCO1` [I-554, (R)-7-((6-((dimethylamino)-methyl)-5-(tetrahydrofuran-2-yl)pyridin-2-yl)amino)-4-(7-fluoroimidazo [1,2-a]pyridin-3-yl)isoindolin-1-one] as the compound, how does the IC50 read?
Answer: Its IC50 is < 100 nM.

Question: For `O=C1NCc2c(-c3cnc4cc(F)ccn34)ccc(Nc3ccc([C@H]4CCOC4)c(CN4CCC(F)(F)C4)n3)c21` [I-717, (R)-7-((6-((3,3-difluoropyrro-lidin-1-yl)methyl)-5-(tetrahydrofuran-3-yl)pyridin-2-yl)amino)-4-(7-fluoroimidazo [1,2-a]pyridin-3-yl)isoindolin-1-one], which IC50 is on record?
Answer: The IC50 was < 100 nM.

Question: Which IC50 does the source give for `CN1CCN(c2ccc(Nc3ccc(-c4cnc5ccccn45)c4c3C(=O)NC4)nc2)CC1` [I-39, 4-(imidazo[1,2-a]pyridin-3-yl)-7-((5-(4-methylpiperazin-1-yl)pyridin-2-yl)amino)isoindolin-1-one] here?
Answer: The IC50 was < 100 nM.
